Assay results reported in patent publication US20250326748A1, “COMPOUNDS AND METHODS FOR MODULATING SPLICING” (REMIX THERAPEUTICS INC., priority 2022, published 2025).

Key:
SMN2 mRNA = assay: Splicing RT-qPCR panel, SMN2 canonical junction (CJ) mRNA; format: cell-based, human; conditions: Homo sapiens, read-out: SMN2 CJ (decrease in CJ mRNA levels, IC50)
Summary of the method: (§1)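 A673 cells (DMEM, 10% FBS) or K562 cells (IMDM, 10% FBS) treated 24 h at 37 °C with an 11-point 3-fold dilution, top 10 uM, DMSO ≤0.25%. Canonical-junction mRNA quantified in lysates by RT-qPCR, normalised to GAPDH, GUSB or PPIA and to DMSO (2^−ΔΔCt), then converted to % response.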

Target C mRNA = assay: Splicing RT-qPCR panel, Target C canonical junction (CJ) mRNA; format: cell-based, human; conditions: Homo sapiens, read-out: Target C CJ (decrease in CJ mRNA levels, IC50)
Summary of the method: as §1

HiBiT-tagged HTT protein = assay: HiBiT protein abundance assay, HTT (K562 HiBiT knock-in); format: cell-based, human; conditions: HiBiT knock-in cells, 24 hours
Summary of the method: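 Endogenously HiBiT-tagged K562 knock-in lines treated 24 h at 37 °C with 10-point 3-fold dilutions (top 10 μM final, DMSO ≤0.25%) in IMDM+1% FBS. Lytic Nano-Glo luminescence normalized to DMSO and unmodified K562 controls; four-parameter fit gives 50%-abundance concentration (IC50).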

K562 cells = assay: Cell viability, Cell Titer Glo 2.0 assay, K562; conditions: 72 hours
Procedure: Compounds described herein were screened for toxicity in K562 (human chronic myelogenous leukemia) and SH-SY5Y (human neuroblastoma) cells using a Cell Titer Glo 2.0 assay.
• Promega CellTiter-Glo® 2.0 Cell Viability Assay (cat #G9241) • Corning 384-well TC-treated microplates (cat #3570)
Cells were plated at 500 cells/well (K562 cells) in 45 μL of IMDM supplemented with 10% FBS in a 384-well opaque plate. Wells containing only medium were used as a blank control. Test compounds (e.g., compounds of Formula (I) or (II)) were first serially diluted in DMSO then diluted 1:100 with IMDM+10% FBS. The final concentration of DMSO was 0.1% in each well. The cells were incubated for 72 hours at 37° C. and 5% CO2 before assaying with Cell Titer Glo 2.0 reagent.

| Compound | IC50 (SMN2 mRNA) [nM] | IC50 (Target C mRNA) [nM] | IC50 (HiBiT-tagged HTT protein) [nM] | Effect on Cell Viability, K562 (K562 cells) |
| --- | --- | --- | --- | --- |
| Cc1c(O)c(-c2ncc3cc(N4CC[C@H](N)C4)cnc3n2)cc2cn(C)nc12 [Compound 160, (S)-5-(6-(3-aminopyrrolidin-1-yl)pyrido[2,3-d]pyrimidin-2-yl)-2,7-dimethyl-2H-indazol-6-ol 2,2,2-trifluoroacetate] | < 100 | 1000 to 10000 | < 100 | B (100-1000 nM) |
| Cn1cc2cc(-c3ccc4cc(N5CC[C@H](NC(C)(C)C)C5)cnc4n3)c(O)cc2n1 (single isomer, unassigned) [Compound 200] | < 100 | 1000 to 10000 | 1000 to 10000 | B (100-1000 nM) |
| Cc1c(O)c(-c2cc(Cl)c3cc(N4CCNCC4)cnc3n2)cc2cn(C)nc12 [Compound 154, 5-[4-chloro-6-(piperazin-1-yl)-1,8-naphthyridin-2-yl]-2,7-dimethylindazol-6-ol] | < 100 | 1000 to 10000 | 100 to 1000 | A (<100 nM) |
| CNC1CCN(c2cnc3nc(-c4cc5cn(C)nc5c(C)c4O)ccc3n2)C1 (centres unmarked) [Compound 192, 2,7-dimethyl-5-{2-[3-(methylamino)337pyrrolidine-1-yl]pyrido[2,3-b]pyrazin-6-yl}indazol-6-ol] | < 100 | 100 to 1000 | 100 to 1000 | B (100-1000 nM) |
| Cc1c(O)c(-c2ccc3nc(N4C[C@@H](C)N[C@@H](C)C4)cnc3n2)cc2cn(C)nc12 [Compound 195, 5-{2-[(3R,5S)-3,5-dimethylpiperazin-1-yl]pyrido[2,3-b]pyrazin-6-yl}-2,7-dimethylindazol-6-ol] | < 100 | > 10000 | 1000 to 10000 | B (100-1000 nM) |
| Cc1c(O)c(-c2ccc3nc(N4CCNCC4)cnc3n2)cc2cn(C)nc12 [Compound 197, 2,7-dimethyl-5-[2-(piperazin-1-yl)pyrido[2,3-b]pyrazin-6-yl]indazol-6-ol] | < 100 | 100 to 1000 | 100 to 1000 | B (100-1000 nM) |
| Cn1cc2cc(-c3cc(Cl)c4cc(N5CCNCC5)cnc4n3)c(O)c(F)c2n1 [Compound 155, 5-[4-chloro-6-(piperazin-1-yl)-1,8-naphthyridin-2-yl]-7-fluoro-2-methylindazol-6-ol] | < 100 | 100 to 1000 | < 100 | A (<100 nM) |
| CNC1CCN(c2cnc3nc(-c4cc(F)c5nc(C)cn5c4)ccc3c2)C1 (centres unmarked) [Compound 100, 1-(7-{8-fluoro-2-methylimidazo[1,2-a]pyridin-6-yl}-1,8-naphthyridin-3-yl)-N-methylpyrrolidin-3-amine] | < 100 | 100 to 1000 | 100 to 1000 | B (100-1000 nM) |

More lines, main results first:

| IC50 (SMN2 mRNA) [nM] | IC50 (Target C mRNA) [nM] | IC50 (HiBiT-tagged HTT protein) [nM] | Compound | Effect on Cell Viability, K562 (K562 cells) |
| --- | --- | --- | --- | --- |
| < 100 | > 10000 | 1000 to 10000 | Cn1cc2cc(-c3cc(Cl)c4cc(N5CCN6CCCC6C5)cnc4n3)cc(F)c2n1 (centres unmarked) [Compound 216, 4-chloro-2-(7-fluoro-2-methylindazol-5-yl)-6-{hexahydro-1H-pyrrolo[1,2-a]pyrazin-2-yl}-1,8-naphthyridine trifluoroacetic acid] | B (100-1000 nM) |
| < 100 | 1000 to 10000 | < 100 | CN[C@H]1CCN(c2cnc3nc(-c4cc5cn(C)nc5c(C)c4O)nc(OC)c3c2)C1 [Compound 212, 5-{4-methoxy-6-[(3S)-3-(methylamino)pyrrolidin-1-yl]pyrido[2,3-d]pyrimidin-2-yl}-2,7-dimethylindazol-6-ol] | A (<100 nM) |
| < 100 | 1000 to 10000 | 100 to 1000 | Cc1c(O)c(-c2ncc3cc(N4C[C@@H](C)N[C@@H](C)C4)cnc3n2)cc2cn(C)nc12 [Compound 214] | B (100-1000 nM) |
